For ten compounds, IC50 results are on record in patent US9181273B2, “Morpholine-spirocyclic piperidine amides as modulators of ion channels” (Vertex Pharmaceuticals Incorporated, priority 2011, dated 2015).

Structures are written as SMILES.

The target in the experiment is human NaV subtype, like NaV 1.7 (Homo sapiens, UniProt Q15858). In words: E-VIPR optical membrane potential assay with electrical stimulation. The class given is cell-based. The conditions noted are these: active against one or more sodium channels; assay and NaV subtype not specified for Table 3; read-out: IC50 Binned Activity Data.
human NaV subtype, like NaV 1.7, sequence (Q15858 whole entry): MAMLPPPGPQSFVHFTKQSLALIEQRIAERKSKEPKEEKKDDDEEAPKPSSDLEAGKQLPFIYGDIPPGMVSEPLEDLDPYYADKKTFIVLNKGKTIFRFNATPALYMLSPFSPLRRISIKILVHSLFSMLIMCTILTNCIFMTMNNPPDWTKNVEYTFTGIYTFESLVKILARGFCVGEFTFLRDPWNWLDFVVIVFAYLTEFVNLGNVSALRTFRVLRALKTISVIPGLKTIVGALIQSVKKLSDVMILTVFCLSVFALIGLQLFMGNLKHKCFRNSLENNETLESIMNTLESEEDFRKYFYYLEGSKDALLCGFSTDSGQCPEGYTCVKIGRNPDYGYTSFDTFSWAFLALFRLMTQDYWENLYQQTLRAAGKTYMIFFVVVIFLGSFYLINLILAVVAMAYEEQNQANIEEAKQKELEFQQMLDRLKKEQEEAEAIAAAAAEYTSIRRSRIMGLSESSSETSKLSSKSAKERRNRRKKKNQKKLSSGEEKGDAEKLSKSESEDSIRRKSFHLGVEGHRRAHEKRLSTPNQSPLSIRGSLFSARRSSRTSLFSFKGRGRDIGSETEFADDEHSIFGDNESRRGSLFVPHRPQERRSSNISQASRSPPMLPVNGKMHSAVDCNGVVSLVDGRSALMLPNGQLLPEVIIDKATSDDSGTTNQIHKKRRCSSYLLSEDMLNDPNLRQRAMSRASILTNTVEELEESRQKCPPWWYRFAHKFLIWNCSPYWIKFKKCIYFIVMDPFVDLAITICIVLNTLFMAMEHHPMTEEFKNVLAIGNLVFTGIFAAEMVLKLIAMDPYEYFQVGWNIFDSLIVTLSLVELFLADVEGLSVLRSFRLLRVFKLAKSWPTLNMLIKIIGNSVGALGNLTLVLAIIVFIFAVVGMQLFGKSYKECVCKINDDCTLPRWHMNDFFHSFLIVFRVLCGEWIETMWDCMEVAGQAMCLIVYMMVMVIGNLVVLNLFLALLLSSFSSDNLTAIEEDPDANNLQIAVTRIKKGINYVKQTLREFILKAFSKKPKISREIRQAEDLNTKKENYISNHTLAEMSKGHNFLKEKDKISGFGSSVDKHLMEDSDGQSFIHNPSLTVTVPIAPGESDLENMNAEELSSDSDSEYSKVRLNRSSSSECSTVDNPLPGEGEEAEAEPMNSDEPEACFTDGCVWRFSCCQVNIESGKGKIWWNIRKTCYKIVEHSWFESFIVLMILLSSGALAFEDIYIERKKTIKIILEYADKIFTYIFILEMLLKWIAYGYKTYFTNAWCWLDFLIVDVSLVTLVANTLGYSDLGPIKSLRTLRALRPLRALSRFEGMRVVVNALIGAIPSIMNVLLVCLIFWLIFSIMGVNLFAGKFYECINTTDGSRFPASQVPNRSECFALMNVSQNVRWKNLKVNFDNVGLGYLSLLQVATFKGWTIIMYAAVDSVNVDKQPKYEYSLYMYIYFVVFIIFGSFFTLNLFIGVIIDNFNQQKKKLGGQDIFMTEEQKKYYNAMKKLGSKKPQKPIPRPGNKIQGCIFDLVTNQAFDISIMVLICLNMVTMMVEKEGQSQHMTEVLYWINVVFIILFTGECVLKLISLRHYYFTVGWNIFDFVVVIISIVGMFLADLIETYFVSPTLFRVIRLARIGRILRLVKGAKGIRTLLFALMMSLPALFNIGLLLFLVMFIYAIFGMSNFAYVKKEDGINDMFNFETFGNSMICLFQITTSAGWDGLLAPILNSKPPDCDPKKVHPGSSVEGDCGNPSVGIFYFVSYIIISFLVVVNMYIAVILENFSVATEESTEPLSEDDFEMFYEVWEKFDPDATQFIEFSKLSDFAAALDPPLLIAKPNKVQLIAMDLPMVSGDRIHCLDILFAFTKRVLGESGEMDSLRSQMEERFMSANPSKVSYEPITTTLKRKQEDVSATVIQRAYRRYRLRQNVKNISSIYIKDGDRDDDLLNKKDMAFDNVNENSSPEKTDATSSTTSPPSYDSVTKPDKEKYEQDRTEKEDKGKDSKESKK
By IC50 is commonly meant the concentration needed to halve the response being measured. Regarding `COCC1CN(c2ncccn2)CC2(CCN(C(=O)c3ccc(C4(O)CCCC4)cc3)CC2)O1` (stereo not shown) [Compound 300], the IC50 was less than 2000 nM. The figure for `Cc1cc(C(=O)N2CCC3(CC2)CN(CC(F)(F)F)CC(c2ccccc2)O3)ccc1OC(C)C` (stereo not shown) [Compound 301] is less than 2000 nM; for `COCC1CN(C2CCCC2)CC2(CCN(C(=O)c3ccc(OC(C)C)c(C)c3)CC2)O1` (stereo not shown) [Compound 302] it is less than 2000 nM. For the compound `COCC1CN(c2ncccn2)CC2(CCN(C(=O)c3ccc(OC(C)C)c(C#N)c3)CC2)O1` (stereo not shown) [Compound 303], the half-maximal inhibitory concentration (IC50) was less than 2000 nM.

Turning to `COCC1CN(C2CCC(C(C)C)CC2)CC2(CCN(C(=O)c3ccc(OC(C)C)c(C)c3)CC2)O1` (stereo not shown) [Compound 304], the IC50 is less than 2000 nM. As for `Cc1cc(C(=O)N2CCC3(CC2)CN(CC(F)F)CC(c2ccccn2)O3)ccc1OCCCO` (stereo not shown) [Compound 305], the half-maximal inhibitory concentration (IC50) lay within 2000 to 5000 nM.

Regarding `Cc1cc(C(=O)N2CCC3(CC2)CN(CC(F)F)CC(c2ccn(C)n2)O3)ccc1OC(C)C` (stereo not shown) [Compound 306], the IC50 is less than 2000 nM. Regarding `CC(C)(O)c1ccc(C(=O)N2CCC3(CC2)CN(CC(F)F)CC(c2ccc(F)cc2)O3)cc1F` (stereo not shown) [Compound 307], the IC50 was less than 2000 nM. As for `CCN1CC(c2ccccc2)OC2(CCN(C(=O)c3ccc(OC(C)C)nc3)CC2)C1` (stereo not shown) [Compound 308], the 50% inhibitory concentration (IC50) was greater than 5000 nM. Turning to `Cc1cnc(C2CN(CC(F)(F)F)CC3(CCN(C(=O)c4ccc(OC(C)C)c(C)c4)CC3)O2)o1` (stereo not shown) [Compound 309], the IC50 is less than 2000 nM.
